Results published in ChEMBL document CHEMBL1275482, “Point mutation in the group B streptococcal pbp2x gene conferring decreased susceptibility to beta-lactam antibiotics” (2008).
Converted amounts (≈) assume the structure as drawn.

Assays:
[1] = tested on: Streptococcus sp. 'group B'; assay: Antimicrobial activity against group B Streptococcus sp. 'group B' serotype V isolate 9171-03 by broth dilution method; type: functional
[2] = tested on: Streptococcus sp. 'group B'; assay: Antimicrobial activity against group B Streptococcus sp. 'group B' isolate 6149-03 by broth dilution method; type: functional
[3] = tested on: Streptococcus sp. 'group B'; assay: Antimicrobial activity against group B Streptococcus sp. 'group B' serotype IA isolate 9012-04 by broth dilution method; type: functional
[4] = tested on: Streptococcus sp. 'group B'; assay: Antimicrobial activity against group B Streptococcus sp. 'group B' serotype III isolate 6138-03 expressing pbp2x Q557E mutant and multilocus sequence type ST19 by broth dilution method; type: functional
[5] = tested on: Streptococcus sp. 'group B'; assay: Antimicrobial activity against group B Streptococcus sp. 'group B' serotype III isolate 8607-03 expressing pbp2x Q557E mutant and multilocus sequence type ST19 by broth dilution method; type: functional
[6] = tested on: Streptococcus sp. 'group B'; assay: Antimicrobial activity against group B Streptococcus sp. 'group B' isolate 7368-04 by broth dilution method; type: functional
[7] = tested on: Streptococcus sp. 'group B'; assay: Antimicrobial activity against group B Streptococcus sp. 'group B' serotype IA isolate 7490-03 by broth dilution method; type: functional
[8] = tested on: Streptococcus sp. 'group B'; assay: Antimicrobial activity against group B Streptococcus sp. 'group B' isolate 4214-03 by broth dilution method; type: functional
[9] = tested on: Streptococcus sp. 'group B'; assay: Antimicrobial activity against group B Streptococcus sp. 'group B' serotype II isolate 3776-04 by broth dilution method; type: functional
[10] = tested on: Streptococcus sp. 'group B'; assay: Antimicrobial activity against group B Streptococcus sp. 'group B' serotype III isolate 8607 with chromosomal pbp2x(Q557E) replaced by wild-type pbp2x through allelic exchange by broth dilution method
[11] = tested on: Streptococcus sp. 'group B'; assay: Antimicrobial activity against group B Streptococcus sp. 'group B' serotype III isolate 8607-03 expressing pbp2x Q557E mutant and harboring empty vector by broth dilution method; type: functional
[12] = tested on: Streptococcus sp. 'group B'; assay: Antimicrobial activity against group B Streptococcus sp. 'group B' serotype III isolate 7037-99 by broth dilution method; type: functional
[13] = tested on: Streptococcus sp. 'group B'; assay: Antimicrobial activity against group B Streptococcus sp. 'group B' serotype IA isolate 3047-05 by broth dilution method; type: functional
[14] = tested on: Streptococcus sp. 'group B'; assay: Antimicrobial activity against group B Streptococcus sp. 'group B' serotype V isolate 4857-03 by broth dilution method; type: functional
[15] = tested on: Streptococcus sp. 'group B'; assay: Antimicrobial activity against group B Streptococcus sp. 'group B' serotype III isolate 7507-03 expressing pbp2x Q557E mutant and multilocus sequence type ST19 by broth dilution method; type: functional
[16] = tested on: Streptococcus sp. 'group B'; assay: Antimicrobial activity against group B Streptococcus sp. 'group B' serotype II isolate 9051-04 by broth dilution method; type: functional
[17] = tested on: Streptococcus sp. 'group B'; assay: Antimicrobial activity against group B Streptococcus sp. 'group B' serotype V isolate 3386-05 by broth dilution method; type: functional
[18] = tested on: Streptococcus sp. 'group B'; assay: Antimicrobial activity against group B Streptococcus sp. 'group B' serotype III isolate 3444-99 by broth dilution method; type: functional
[19] = tested on: Streptococcus sp. 'group B'; assay: Antimicrobial activity against group B Streptococcus sp. 'group B' serotype IA isolate 5662-05 by broth dilution method; type: functional
[20] = tested on: Streptococcus sp. 'group B'; assay: Antimicrobial activity against group B Streptococcus sp. 'group B' serotype IB isolate 5436-03 by broth dilution method; type: functional
[21] = tested on: Streptococcus sp. 'group B'; assay: Antimicrobial activity against group B Streptococcus sp. 'group B' serotype III isolate 3789-04 expressing pbp2x Q557E mutant and multilocus sequence type ST19 by broth dilution method; type: functional
[22] = tested on: Streptococcus sp. 'group B'; assay: Antimicrobial activity against group B Streptococcus sp. 'group B' serotype IA isolate 6649-05 by broth dilution method; type: functional
[23] = tested on: Streptococcus sp. 'group B'; assay: Antimicrobial activity against group B Streptococcus sp. 'group B' serotype V isolate 5677-04 by broth dilution method; type: functional
[24] = tested on: Streptococcus sp. 'group B'; assay: Antimicrobial activity against group B Streptococcus sp. 'group B' serotype III isolate 8607-03 expressing pbp2x Q557E mutant and harboring plasmid expressing wild-type pbp2x by broth dilution method; type: functional
[25] = tested on: Streptococcus sp. 'group B'; assay: Antimicrobial activity against group B Streptococcus sp. 'group B' serotype IV isolate 3454-03 by broth dilution method; type: functional

**Q.** Which MIC [1] does the source give for `CC1(C)S[C@@H]2[C@H](NC(=O)[C@H](N)c3ccccc3)C(=O)N2[C@H]1C(=O)O` [AMPICILLIN] here?
**A.** 0.12 µg/mL (≈ 0.343 µM)

**Q.** What about the MIC [2] of the same compound?
**A.** 0.12 µg/mL (≈ 0.343 µM)

**Q.** And the MIC [3]?
**A.** 0.06 µg/mL (≈ 0.172 µM)

**Q.** What about the MIC [4] of the same compound?
**A.** 0.06 µg/mL (≈ 0.172 µM)

**Q.** And the MIC [5]?
**A.** 0.06 µg/mL (≈ 0.172 µM)

**Q.** What about the MIC [6] of the same compound?
**A.** 0.12 µg/mL (≈ 0.343 µM)

**Q.** What about the MIC [7] of the same compound?
**A.** 0.12 µg/mL (≈ 0.343 µM)

**Q.** And the MIC [8]?
**A.** 0.25 µg/mL (≈ 0.715 µM)

**Q.** And the MIC [9]?
**A.** 0.25 µg/mL (≈ 0.715 µM)

**Q.** What about the MIC [10] of the same compound?
**A.** 0.06 µg/mL (≈ 0.172 µM)

**Q.** And the MIC [11]?
**A.** 0.06 µg/mL (≈ 0.172 µM)

**Q.** And the MIC [12]?
**A.** 0.12 µg/mL (≈ 0.343 µM)

**Q.** What about the MIC [13] of the same compound?
**A.** 0.12 µg/mL (≈ 0.343 µM)

**Q.** What about the MIC [14] of the same compound?
**A.** 0.25 µg/mL (≈ 0.715 µM)

**Q.** What about the MIC [15] of the same compound?
**A.** 0.12 µg/mL (≈ 0.343 µM)

**Q.** And the MIC [16]?
**A.** 0.12 µg/mL (≈ 0.343 µM)

**Q.** And the MIC [17]?
**A.** 0.06 µg/mL (≈ 0.172 µM)

**Q.** And the MIC [18]?
**A.** 0.12 µg/mL (≈ 0.343 µM)

**Q.** And the MIC [19]?
**A.** 0.12 µg/mL (≈ 0.343 µM)

**Q.** What about the MIC [20] of the same compound?
**A.** 0.06 µg/mL (≈ 0.172 µM)

**Q.** What about the MIC [21] of the same compound?
**A.** 0.12 µg/mL (≈ 0.343 µM)

**Q.** And the MIC [22]?
**A.** 0.25 µg/mL (≈ 0.715 µM)

**Q.** What about the MIC [23] of the same compound?
**A.** 0.25 µg/mL (≈ 0.715 µM)

**Q.** And the MIC [24]?
**A.** 0.06 µg/mL (≈ 0.172 µM)

**Q.** And the MIC [25]?
**A.** 0.25 µg/mL (≈ 0.715 µM)

**Q.** With `Cc1nnc(SCC2=C(C(=O)O)N3C(=O)[C@@H](NC(=O)Cn4cnnn4)[C@H]3SC2)s1` [CEFAZOLIN] as the compound, how does the MIC [1] read?
**A.** 0.25 µg/mL (≈ 0.55 µM)

**Q.** And the MIC [2]?
**A.** 0.25 µg/mL (≈ 0.55 µM)

**Q.** And the MIC [3]?
**A.** 0.25 µg/mL (≈ 0.55 µM)

**Q.** And the MIC [4]?
**A.** 0.5 µg/mL (≈ 1.1 µM)

**Q.** And the MIC [5]?
**A.** 0.5 µg/mL (≈ 1.1 µM)

**Q.** And the MIC [6]?
**A.** 0.5 µg/mL (≈ 1.1 µM)

**Q.** And the MIC [7]?
**A.** 0.25 µg/mL (≈ 0.55 µM)

**Q.** What about the MIC [8] of the same compound?
**A.** 0.5 µg/mL (≈ 1.1 µM)

**Q.** What about the MIC [9] of the same compound?
**A.** 0.25 µg/mL (≈ 0.55 µM)

**Q.** What about the MIC [10] of the same compound?
**A.** 2 µg/mL (≈ 4.4 µM)

**Q.** What about the MIC [11] of the same compound?
**A.** 16 µg/mL (≈ 35.2 µM)

**Q.** What about the MIC [12] of the same compound?
**A.** 0.25 µg/mL (≈ 0.55 µM)

**Q.** What about the MIC [13] of the same compound?
**A.** 0.25 µg/mL (≈ 0.55 µM)

**Q.** And the MIC [14]?
**A.** 0.5 µg/mL (≈ 1.1 µM)

**Q.** What about the MIC [15] of the same compound?
**A.** 0.5 µg/mL (≈ 1.1 µM)

**Q.** And the MIC [16]?
**A.** 0.25 µg/mL (≈ 0.55 µM)

**Q.** And the MIC [17]?
**A.** 0.12 µg/mL (≈ 0.264 µM)

**Q.** And the MIC [18]?
**A.** 0.25 µg/mL (≈ 0.55 µM)

**Q.** And the MIC [19]?
**A.** 0.25 µg/mL (≈ 0.55 µM)

**Q.** What about the MIC [20] of the same compound?
**A.** 1 µg/mL (≈ 2.2 µM)

**Q.** What about the MIC [21] of the same compound?
**A.** 1 µg/mL (≈ 2.2 µM)

**Q.** What about the MIC [22] of the same compound?
**A.** 0.5 µg/mL (≈ 1.1 µM)

**Q.** What about the MIC [23] of the same compound?
**A.** 1 µg/mL (≈ 2.2 µM)

**Q.** What about the MIC [24] of the same compound?
**A.** 2 µg/mL (≈ 4.4 µM)

**Q.** What about the MIC [25] of the same compound?
**A.** 0.5 µg/mL (≈ 1.1 µM)

**Q.** `CO/N=C(\C(=O)N[C@@H]1C(=O)N2C(C(=O)O)=C(COC(C)=O)CS[C@H]12)c1csc(N)n1` [CEFOTAXIME] was tested. Which MIC [1] did it give?
**A.** 0.12 µg/mL (≈ 0.263 µM)

**Q.** What about the MIC [2] of the same compound?
**A.** 0.06 µg/mL (≈ 0.132 µM)

**Q.** What about the MIC [3] of the same compound?
**A.** 0.06 µg/mL (≈ 0.132 µM)

**Q.** And the MIC [4]?
**A.** 0.25 µg/mL (≈ 0.549 µM)

**Q.** What about the MIC [5] of the same compound?
**A.** 0.25 µg/mL (≈ 0.549 µM)

**Q.** And the MIC [6]?
**A.** 0.06 µg/mL (≈ 0.132 µM)

**Q.** And the MIC [7]?
**A.** 0.12 µg/mL (≈ 0.263 µM)

**Q.** And the MIC [8]?
**A.** 0.12 µg/mL (≈ 0.263 µM)

**Q.** And the MIC [9]?
**A.** 0.12 µg/mL (≈ 0.263 µM)

**Q.** What about the MIC [10] of the same compound?
**A.** 0.03 µg/mL (≈ 0.0659 µM)

**Q.** And the MIC [11]?
**A.** 0.25 µg/mL (≈ 0.549 µM)

**Q.** What about the MIC [12] of the same compound?
**A.** 0.12 µg/mL (≈ 0.263 µM)

**Q.** And the MIC [13]?
**A.** 0.06 µg/mL (≈ 0.132 µM)

**Q.** What about the MIC [14] of the same compound?
**A.** 0.06 µg/mL (≈ 0.132 µM)

**Q.** What about the MIC [15] of the same compound?
**A.** 0.12 µg/mL (≈ 0.263 µM)

**Q.** And the MIC [16]?
**A.** 0.06 µg/mL (≈ 0.132 µM)

**Q.** What about the MIC [17] of the same compound?
**A.** 0.06 µg/mL (≈ 0.132 µM)

**Q.** And the MIC [18]?
**A.** 0.06 µg/mL (≈ 0.132 µM)

**Q.** And the MIC [19]?
**A.** 0.06 µg/mL (≈ 0.132 µM)

**Q.** And the MIC [20]?
**A.** 0.25 µg/mL (≈ 0.549 µM)

**Q.** What about the MIC [21] of the same compound?
**A.** 0.25 µg/mL (≈ 0.549 µM)

**Q.** What about the MIC [22] of the same compound?
**A.** 0.12 µg/mL (≈ 0.263 µM)

**Q.** What about the MIC [23] of the same compound?
**A.** 0.12 µg/mL (≈ 0.263 µM)

**Q.** What about the MIC [24] of the same compound?
**A.** 0.015 µg/mL (≈ 0.0329 µM)

**Q.** What about the MIC [25] of the same compound?
**A.** 0.25 µg/mL (≈ 0.549 µM)
